Reference: patent US20170224662A1 (priority 2016, published 2017)

Legend:
physchem = assay type: physicochemical; settings: imidazole nitrogen in position 3; solubility analysis (log solubility curve) and titration
From the text: The solubility of compounds as disclosed herein is pH-dependent. The imidazole nitrogen in position 3 of CPMM has a pKa of approximately 2.5, as determined by solubility analysis and titration. For example, CPMM is very water soluble at low pH, but solubility decreases with increasing pH, such that it is lower at pH 3-8.

[1] = Binary excipient screening: stability of CPMM 1 mg/mL in IV-compatible excipient solutions in 10 mM pH 3 phosphate buffer; assay type: physicochemical; settings: for CPMM % Purity: t = 0
Procedure: CPMM was evaluated for compatibility with excipients that are suitable for IV administration. A buffer solution (phosphate at pH 3) was selected as the diluent for excipient screening studies. […] CPMM was solubilized in each excipient solution at 1 mg/mL.
While CPMM completely dissolved in the control sample within several minutes, many of the excipient solutions required overnight storage at 5° C. to solubilize the drug.
Each excipient sample solution was placed on a two-week stability study at 25° C./60% relative humidity and 40° C./75% relative humidity, and analyzed for CPMM purity at t=0, 1, and 2 weeks by comparing individual samples to their respective excipient blank solution.

COC(=O)C1(OC(=O)c2cncn2[C@H](C)c2ccccc2)CC1 [CPMM, 1-(methoxycarbonyl)cyclopropyl-1-[(1R)-1-phenylethyl]-1H-imidazole-5-carboxylate]
pKa (physchem): ~2.5 | Change in CPMM % Purity ([1]; Ascorbic Acid 0.5% in pH 3 buffer, 1 week 25° C./60% RH): −14.4% | Change in CPMM % Purity ([1]; Ascorbic Acid 0.5% in pH 3 buffer, 1 week 40° C./75% RH): −31.6% | Change in CPMM % Purity ([1]; Ascorbic Acid 0.5% in pH 3 buffer, 2 weeks 25° C./60% RH): −26.4% | Change in CPMM % Purity ([1]; Ascorbic Acid 0.5% in pH 3 buffer, 2 weeks 40° C./75% RH): −49.8% | CPMM % Purity ([1]; Ascorbic Acid 0.5% in pH 3 buffer): 97.6% | Change in CPMM % Purity ([1]; Ascorbic Acid/Edetate Disodium Dihydrate 0.5%/0.05% in pH 3 buffer, 1 week 25° C./60% RH): −2.2% | Change in CPMM % Purity ([1]; Ascorbic Acid/Edetate Disodium Dihydrate 0.5%/0.05% in pH 3 buffer, 1 week 40° C./75% RH): −9.8% | Change in CPMM % Purity ([1]; Ascorbic Acid/Edetate Disodium Dihydrate 0.5%/0.05% in pH 3 buffer, 2 weeks 25° C./60% RH): −4.2% | Change in CPMM % Purity ([1]; Ascorbic Acid/Edetate Disodium Dihydrate 0.5%/0.05% in pH 3 buffer, 2 weeks 40° C./75% RH): −17.8% | CPMM % Purity ([1]; Ascorbic Acid/Edetate Disodium Dihydrate 0.5%/0.05% in pH 3 buffer): 99.4% | Change in CPMM % Purity ([1]; Control: Water, 1 week 25° C./60% RH): −0.9% | Change in CPMM % Purity ([1]; Control: Water, 1 week 40° C./75% RH): −3.4% | CPMM % Purity ([1]; Control: Water): 99.4% | Change in CPMM % Purity ([1]; Control: pH 3 Buffer, 1 week 25° C./60% RH): −1.6% | Change in CPMM % Purity ([1]; Control: pH 3 Buffer, 1 week 40° C./75% RH): −5.3% | Change in CPMM % Purity ([1]; Control: pH 3 Buffer, 2 weeks 25° C./60% RH): −2.6% | Change in CPMM % Purity ([1]; Control: pH 3 Buffer, 2 weeks 40° C./75% RH): −9.2% | CPMM % Purity ([1]; Control: pH 3 Buffer): 99.5% | Change in CPMM % Purity ([1]; Dextrose 5% in pH 3 buffer, 1 week 25° C./60% RH): −1.5% | Change in CPMM % Purity ([1]; Dextrose 5% in pH 3 buffer, 1 week 40° C./75% RH): −5.2% | Change in CPMM % Purity ([1]; Dextrose 5% in pH 3 buffer, 2 weeks 25° C./60% RH): −2.5% | Change in CPMM % Purity ([1]; Dextrose 5% in pH 3 buffer, 2 weeks 40° C./75% RH): −9.0% | CPMM % Purity ([1]; Dextrose 5% in pH 3 buffer): 99.4% | Change in CPMM % Purity ([1]; Ethanol 10% in pH 3 buffer, 1 week 25° C./60% RH): −1.1% | Change in CPMM % Purity ([1]; Ethanol 10% in pH 3 buffer, 1 week 40° C./75% RH): −3.2% | Change in CPMM % Purity ([1]; Ethanol 10% in pH 3 buffer, 2 weeks 25° C./60% RH): −3.1% | Change in CPMM % Purity ([1]; Ethanol 10% in pH 3 buffer, 2 weeks 40° C./75% RH): −7.0% | CPMM % Purity ([1]; Ethanol 10% in pH 3 buffer): 99.5% | Change in CPMM % Purity ([1]; Glycerol 10% in pH 3 buffer, 1 week 25° C./60% RH): −1.3% | Change in CPMM % Purity ([1]; Glycerol 10% in pH 3 buffer, 1 week 40° C./75% RH): −4.7% | Change in CPMM % Purity ([1]; Glycerol 10% in pH 3 buffer, 2 weeks 25° C./60% RH): −3.6% | Change in CPMM % Purity ([1]; Glycerol 10% in pH 3 buffer, 2 weeks 40° C./75% RH): −9.8% | CPMM % Purity ([1]; Glycerol 10% in pH 3 buffer): 99.4% | Change in CPMM % Purity ([1]; HPβCD 10% in pH 3 buffer, 1 week 25° C./60% RH): −0.4% | Change in CPMM % Purity ([1]; HPβCD 10% in pH 3 buffer, 1 week 40° C./75% RH): −1.6% | Change in CPMM % Purity ([1]; HPβCD 10% in pH 3 buffer, 2 weeks 25° C./60% RH): −0.6% | Change in CPMM % Purity ([1]; HPβCD 10% in pH 3 buffer, 2 weeks 40° C./75% RH): −2.5% | CPMM % Purity ([1]; HPβCD 10% in pH 3 buffer): 99.4% | Change in CPMM % Purity ([1]; KCl 5% in pH 3 buffer, 1 week 25° C./60% RH): −1.3% | Change in CPMM % Purity ([1]; KCl 5% in pH 3 buffer, 1 week 40° C./75% RH): −4.8% | Change in CPMM % Purity ([1]; KCl 5% in pH 3 buffer, 2 weeks 25° C./60% RH): −2.2% | Change in CPMM % Purity ([1]; KCl 5% in pH 3 buffer, 2 weeks 40° C./75% RH): −8.2% | CPMM % Purity ([1]; KCl 5% in pH 3 buffer): 99.4% | Change in CPMM % Purity ([1]; Lutrol F68 1% in pH 3 buffer, 1 week 25° C./60% RH): −1.6% | Change in CPMM % Purity ([1]; Lutrol F68 1% in pH 3 buffer, 1 week 40° C./75% RH): −5.2% | Change in CPMM % Purity ([1]; Lutrol F68 1% in pH 3 buffer, 2 weeks 25° C./60% RH): −2.5% | Change in CPMM % Purity ([1]; Lutrol F68 1% in pH 3 buffer, 2 weeks 40° C./75% RH): −9.0% | CPMM % Purity ([1]; Lutrol F68 1% in pH 3 buffer): 99.5% | Change in CPMM % Purity ([1]; Mannitol 5% in pH 3 buffer, 1 week 25° C./60% RH): −1.5% | Change in CPMM % Purity ([1]; Mannitol 5% in pH 3 buffer, 1 week 40° C./75% RH): −5.2% | Change in CPMM % Purity ([1]; Mannitol 5% in pH 3 buffer, 2 weeks 25° C./60% RH): −2.6% | Change in CPMM % Purity ([1]; Mannitol 5% in pH 3 buffer, 2 weeks 40° C./75% RH): −9.1% | CPMM % Purity ([1]; Mannitol 5% in pH 3 buffer): 99.4% | Change in CPMM % Purity ([1]; NaCl 5% in pH 3 buffer, 1 week 25° C./60% RH): −1.1%
